# Measurements reported in patent US20130164847A1, “USE OF A PROTEIN TYROSINE KINASE INHIBITOR FOR INDUCING THE DIFFERENTIATION OF MESENCHYMAL STEM CELLS INTO CARDIOGENIC CELLS” (PHARMICELL. CO., LTD., priority 2010, published 2013).
# Test system: mesenchymal stem cells
# Assay: Sandwich ELISA of cTnT after ex vivo differentiation of rat MSCs by PTK inhibitor treatment
# Assay type: cell-based
# Conditions: rat MSCs cultured 9 days with 1 μM or 10 μM compound
# Protocol: For the second subculture, MSCs were dispensed on a 60 mm plate at 2×10^5 cells/ml using the identical medium as above, treated with N-(3-bromophenyl)-6,7-diethoxyquinazoline-4-amine (Sigma), a protein tyrosine kinase (PTK) inhibitor, at a final concentration of 1 μM or 10 μM. The cells were cultured for 9 days, wherein the medium was replaced once every three days with a fresh medium containing the aforementioned compound.
# 100 ng of capture antibodies were bound to polyvinyl chloride (PVC) and microtiter high-binding plate (96 wells) at 4° C. overnight. The plate was washed twice with PBS, capture antibodies were blocked with PBS containing 5% BSA overnight under moist air at the room temperature. The plate was washed twice with PBS, and 5 ug of cell lysates together with blocking buffer was added to each well. The plate was incubated at 37° C. for 1.5 hours. The plate was washed 4 times with PBS containing 0.02% Tween-20. Upon adding detector antibodies, the plate was incubated under moist air and the room temperature for 2 hours, and washed 4 times with PBS containing 0.02% Tween-20. […] After 10 minutes, the reaction was stopped by adding 25 ul of 0.1M H2SO4, then the absorbance at 450 nm was immediately measured with an ELISA plate reader (Bio-Rad). […]
compound,measurement,setting,value
"CCOc1cc2ncnc(Nc3cccc(Br)c3)c2cc1OCC [compound #23, N-(3-bromophenyl)-6,7-diethoxyquinazoline-4-amine]","differentiation into myocardial cells (sandwich ELISA, FIG. 13)",,increases depending on the concentration
same,expression ratio of cardiac troponin T (cTnT),"sandwich ELISA, FIG. 13",increasing expression ratio of cardiac troponin T (cTnT) by the method dependent on dosage
